In ChEMBL document CHEMBL5647694, “Novel orally bioavailable EZH1/2 dual inhibitors with greater antitumor efficacy than an EZH2 selective inhibitor” (Cancer Sci, 2017):

Legend:
[1] = molecular target: Serine/threonine-protein kinase Nek9 (Homo sapiens) (UniProt Q8TD19); experiment: Inhibition of N-terminal GST-fused truncated human NEK9 (1 to 346, 733 to 979 residues) expressed in baculovirus expression system using CDK7 peptide as substrate at 1 uM in presence of ATP by Mobility shift assay
[2] = molecular target: Ribosomal protein S6 kinase beta-1 (Homo sapiens) (UniProt P23443); experiment: Inhibition of N-terminal GST-fused human p70S6K catalytic domain (1 to 421 residues) expressed in baculovirus expression system using S6K2 peptide as substrate at 1 uM in presence of ATP by Mobility shift assay
[3] = molecular target: Ribosomal protein S6 kinase alpha-5 (Homo sapiens) (UniProt O75582); experiment: Inhibition of N-terminal GST-fused full length human MSK1 (1 to 802 residues) expressed in baculovirus expression system using Crosstide as substrate at 1 uM in presence of ATP by Mobility shift assay
[4] = molecular target: Proto-oncogene tyrosine-protein kinase receptor Ret (Homo sapiens) (UniProt P07949); experiment: Inhibition of N-terminal GST-tagged human RET cytoplasmic domain (658 to 1114 residues) expressed in baculovirus-infected Sf21 cells using CSKtide as substrate at 1 uM in presence of ATP by Mobility shift assay
[5] = molecular target: Ephrin type-A receptor 1 (Homo sapiens) (UniProt P21709); experiment: Inhibition of N-terminal GST-fused human EPHA1 cytoplasmic domain (586 to 976 residues) expressed in baculovirus-infected Sf21 cells using Blk/Lyntide as substrate at 1 uM in presence of ATP by Mobility shift assay
[6] = molecular target: Dual specificity tyrosine-phosphorylation-regulated kinase 2 (Homo sapiens) (UniProt Q92630); experiment: Inhibition of N-terminal GST-fused full length human DYRK2 (1 to 528 residues) expressed in baculovirus expression system using DYRKtide-F as substrate at 1 uM in presence of ATP by Mobility shift assay
[7] = molecular target: [Pyruvate dehydrogenase (acetyl-transferring)] kinase isozyme 2, mitochondrial (Homo sapiens) (UniProt Q15119); experiment: Inhibition of N-terminal GST-fused full length human PDHK2 (1 to 407 residues) expressed in baculovirus expression system using PDHKtide as substrate at 1 uM in presence of ATP by Mobility shift assay
[8] = molecular target: Ephrin type-B receptor 1 (Homo sapiens) (UniProt P54762); experiment: Inhibition of N-terminal GST-fused human EPHB1 cytoplasmic domain (578 to 984 residues) expressed in baculovirus-infected Sf21 cells using Blk/Lyntide as substrate at 1 uM in presence of ATP by Mobility shift assay
Homo sapiens = organism: Homo sapiens; experiment: Competitive inhibition of PRC2-EZH2 (unknown origin) assessed as intensity of SAM signal using SAM as substrate at 800 uM by STD-NMR analysis (reference value: 100%); parameters: scale not given: the % may be the effect or the level left
[9] = molecular target: Tyrosine-protein kinase Lyn (Homo sapiens) (UniProt P07948); experiment: Inhibition of N-terminal GST-tagged full length human LynB(1 to 491 residues ) expressed in baculovirus-infected Sf21 cells using Srctide as substrate at 1 uM in presence of ATP by Mobility shift assay
[10] = molecular target: Tyrosine-protein kinase JAK2 (Homo sapiens) (UniProt O60674); experiment: Inhibition of N-terminal His-tagged human JAK2 catalytic domain (826 to 1132 residues) expressed in baculovirus-infected Sf21 cells using Srctide as substrate at 1 uM in presence of ATP by Mobility shift assay
[11] = molecular target: Eukaryotic elongation factor 2 kinase (Homo sapiens) (UniProt O00418); experiment: Inhibition of N-terminal GST-fused full length human EEF2K (1 to 725 residues) expressed in Escherichia coli expression system using EEF2Ktide as substrate at 1 uM in presence of ATP by Mobility shift assay
[12] = molecular target: Sphingosine kinase 2 (Homo sapiens) (UniProt Q9NRA0); experiment: Inhibition of N-terminal GST-fused full length human SPHK2 (1 to 618 residues) expressed in baculovirus expression system using Sphingosine as substrate at 1 uM in presence of ATP by Mobility shift assay
[13] = molecular target: BDNF/NT-3 growth factors receptor (Homo sapiens) (UniProt Q16620); experiment: Inhibition of N-terminal GST-tagged human TRKB cytoplasmic domain (456 to 822 residues) expressed in baculovirus-infected Sf21 cells using Srctide as substrate at 1 uM in presence of ATP by Mobility shift assay
[14] = molecular target: Serine/threonine-protein kinase 24 (Homo sapiens) (UniProt Q9Y6E0); experiment: Inhibition of N-terminal GST-fused full length human MST3 (1 to 431 residues) expressed in baculovirus expression system using Moesin-derived peptide as substrate at 1 uM in presence of ATP by Mobility shift assay
[15] = molecular target: Non-receptor tyrosine-protein kinase TNK1 (Homo sapiens) (UniProt Q13470); experiment: Inhibition of N-terminal GST-tagged human TNK1 catalytic domain (106 to 390 residues) expressed in baculovirus-infected Sf21 cells using CSKtide as substrate at 1 uM in presence of ATP by Mobility shift assay
[16] = molecular target: Insulin receptor-related protein (Homo sapiens) (UniProt P14616); experiment: Inhibition of N-terminal fused human IRR cytoplasmic domain (953 to 1297 residues) expressed in baculovirus-infected Sf21 cells using IRS1 as substrate at 1 uM in presence of ATP by Mobility shift assay
[17] = molecular target: Serine/threonine-protein kinase SIK2 (Homo sapiens) (UniProt Q9H0K1); experiment: Inhibition of N-terminal GST-fused full length human QIK (1 to 926 residues) expressed in baculovirus expression system using AMARA peptide as substrate at 1 uM in presence of ATP by Mobility shift assay
[18] = molecular target: Serine/threonine-protein kinase Nek6 (Homo sapiens) (UniProt Q9HC98); experiment: Inhibition of N-terminal GST-fused full length human NEK6 (1 to 313 residues) expressed in baculovirus expression system using CDK7 peptide as substrate at 1 uM in presence of ATP by Mobility shift assay
[19] = molecular target: Protein kinase C alpha type (Homo sapiens) (UniProt P17252); experiment: Inhibition of N-terminal GST-fused human full length PKC-alpha (1 to 672 residues ) expressed in baculovirus expression system using PKC peptide as substrate at 1 uM in presence of ATP by Mobility shift assay
[20] = molecular target: Ribosomal protein S6 kinase alpha-4 (Homo sapiens) (UniProt O75676); experiment: Inhibition of N-terminal GST-fused full length human MSK2 (1 to 772 residues) expressed in baculovirus expression system using Crosstide as substrate at 1 uM in presence of ATP by Mobility shift assay
[21] = molecular target: Tyrosine-protein kinase Fgr (Homo sapiens) (UniProt P09769); experiment: Inhibition of N-terminal GST-fused full length human FGR (1 to 529 residues) expressed in baculovirus-infected Sf21 cells using Srctide as substrate at 1 uM in presence of ATP by Mobility shift assay
[22] = molecular target: Serine/threonine-protein kinase haspin (Homo sapiens) (UniProt Q8TF76); experiment: Inhibition of N-terminal GST-fused full length human Haspin (1 to 798 residues) expressed in baculovirus expression system using Histone H3 peptide as substrate at 1 uM in presence of ATP by Mobility shift assay

Sequence of Dual specificity tyrosine-phosphorylation-regulated kinase 2 (Homo sapiens) (Q92630 whole entry, the tested form may be a part): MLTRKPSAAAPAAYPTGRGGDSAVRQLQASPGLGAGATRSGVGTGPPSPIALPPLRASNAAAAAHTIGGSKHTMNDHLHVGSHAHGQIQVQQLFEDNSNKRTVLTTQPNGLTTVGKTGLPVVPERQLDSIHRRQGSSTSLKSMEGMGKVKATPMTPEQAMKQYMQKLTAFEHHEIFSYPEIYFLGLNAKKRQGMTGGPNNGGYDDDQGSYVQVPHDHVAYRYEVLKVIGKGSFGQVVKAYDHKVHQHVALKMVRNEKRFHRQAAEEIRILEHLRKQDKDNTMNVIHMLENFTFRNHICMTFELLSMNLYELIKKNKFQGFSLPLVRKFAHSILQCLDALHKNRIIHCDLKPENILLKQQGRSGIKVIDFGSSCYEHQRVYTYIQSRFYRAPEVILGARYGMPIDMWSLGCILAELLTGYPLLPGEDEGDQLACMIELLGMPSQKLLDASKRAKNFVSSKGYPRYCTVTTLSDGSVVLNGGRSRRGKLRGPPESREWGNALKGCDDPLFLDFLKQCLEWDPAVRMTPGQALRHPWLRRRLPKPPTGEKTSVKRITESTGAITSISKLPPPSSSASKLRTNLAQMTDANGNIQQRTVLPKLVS
Sequence of Proto-oncogene tyrosine-protein kinase receptor Ret (Homo sapiens) (P07949 whole entry, the tested form may be a part): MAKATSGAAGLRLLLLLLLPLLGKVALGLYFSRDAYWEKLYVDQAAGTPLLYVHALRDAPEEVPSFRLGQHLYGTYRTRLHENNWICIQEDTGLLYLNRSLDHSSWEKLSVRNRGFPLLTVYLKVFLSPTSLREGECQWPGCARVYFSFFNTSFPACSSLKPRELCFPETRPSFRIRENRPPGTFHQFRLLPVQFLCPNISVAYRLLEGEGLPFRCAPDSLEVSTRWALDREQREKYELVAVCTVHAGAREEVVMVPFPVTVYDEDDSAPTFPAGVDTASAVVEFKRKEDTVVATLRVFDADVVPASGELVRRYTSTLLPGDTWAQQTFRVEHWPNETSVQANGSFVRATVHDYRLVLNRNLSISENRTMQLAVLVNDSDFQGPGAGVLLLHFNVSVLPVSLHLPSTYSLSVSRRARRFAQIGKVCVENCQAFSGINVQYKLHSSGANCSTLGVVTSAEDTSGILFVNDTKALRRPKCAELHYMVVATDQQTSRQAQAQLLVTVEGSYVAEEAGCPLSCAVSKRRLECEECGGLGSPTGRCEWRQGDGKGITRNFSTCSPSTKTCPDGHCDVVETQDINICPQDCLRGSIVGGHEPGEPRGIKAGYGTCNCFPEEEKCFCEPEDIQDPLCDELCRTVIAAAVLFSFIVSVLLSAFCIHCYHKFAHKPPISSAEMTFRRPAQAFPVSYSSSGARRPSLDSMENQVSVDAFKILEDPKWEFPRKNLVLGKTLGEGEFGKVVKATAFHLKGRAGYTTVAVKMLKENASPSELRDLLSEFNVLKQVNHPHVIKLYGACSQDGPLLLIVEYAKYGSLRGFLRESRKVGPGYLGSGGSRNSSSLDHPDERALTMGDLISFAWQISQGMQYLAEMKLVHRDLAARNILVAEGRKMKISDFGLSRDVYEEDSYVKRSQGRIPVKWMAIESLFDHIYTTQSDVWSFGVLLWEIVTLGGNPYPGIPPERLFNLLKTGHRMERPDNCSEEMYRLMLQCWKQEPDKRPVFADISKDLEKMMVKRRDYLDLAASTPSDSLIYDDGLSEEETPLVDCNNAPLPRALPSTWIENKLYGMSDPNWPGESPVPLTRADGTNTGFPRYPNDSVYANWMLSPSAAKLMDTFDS
Sequence of Serine/threonine-protein kinase SIK2 (Homo sapiens) (Q9H0K1 whole entry, looked up, the tested form may be a part): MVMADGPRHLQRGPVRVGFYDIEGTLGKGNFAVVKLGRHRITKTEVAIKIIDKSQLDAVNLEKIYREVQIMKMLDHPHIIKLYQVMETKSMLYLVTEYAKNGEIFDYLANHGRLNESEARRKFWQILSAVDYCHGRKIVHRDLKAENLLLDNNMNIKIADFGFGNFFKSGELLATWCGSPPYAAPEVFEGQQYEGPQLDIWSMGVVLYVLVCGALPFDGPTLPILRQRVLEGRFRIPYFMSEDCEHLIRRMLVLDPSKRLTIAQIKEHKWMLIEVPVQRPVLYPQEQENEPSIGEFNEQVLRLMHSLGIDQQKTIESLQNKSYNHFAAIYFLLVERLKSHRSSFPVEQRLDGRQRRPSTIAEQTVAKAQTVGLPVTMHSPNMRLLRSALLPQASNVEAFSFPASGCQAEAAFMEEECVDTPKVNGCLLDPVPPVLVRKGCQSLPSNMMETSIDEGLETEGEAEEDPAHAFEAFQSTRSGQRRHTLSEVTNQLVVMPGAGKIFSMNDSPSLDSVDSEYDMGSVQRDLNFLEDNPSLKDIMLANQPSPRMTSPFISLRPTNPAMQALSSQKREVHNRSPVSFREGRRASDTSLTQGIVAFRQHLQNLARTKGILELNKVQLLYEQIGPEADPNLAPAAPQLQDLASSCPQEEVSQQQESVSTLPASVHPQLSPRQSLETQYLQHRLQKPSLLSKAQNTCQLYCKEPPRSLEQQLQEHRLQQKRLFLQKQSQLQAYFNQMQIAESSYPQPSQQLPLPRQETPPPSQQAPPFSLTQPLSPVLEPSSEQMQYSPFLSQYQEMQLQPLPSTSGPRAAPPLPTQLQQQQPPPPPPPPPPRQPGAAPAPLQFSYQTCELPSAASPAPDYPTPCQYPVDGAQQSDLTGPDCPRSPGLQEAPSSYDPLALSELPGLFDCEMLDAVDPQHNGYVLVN
Sequence of Eukaryotic elongation factor 2 kinase (Homo sapiens) (O00418 whole entry, the tested form may be a part): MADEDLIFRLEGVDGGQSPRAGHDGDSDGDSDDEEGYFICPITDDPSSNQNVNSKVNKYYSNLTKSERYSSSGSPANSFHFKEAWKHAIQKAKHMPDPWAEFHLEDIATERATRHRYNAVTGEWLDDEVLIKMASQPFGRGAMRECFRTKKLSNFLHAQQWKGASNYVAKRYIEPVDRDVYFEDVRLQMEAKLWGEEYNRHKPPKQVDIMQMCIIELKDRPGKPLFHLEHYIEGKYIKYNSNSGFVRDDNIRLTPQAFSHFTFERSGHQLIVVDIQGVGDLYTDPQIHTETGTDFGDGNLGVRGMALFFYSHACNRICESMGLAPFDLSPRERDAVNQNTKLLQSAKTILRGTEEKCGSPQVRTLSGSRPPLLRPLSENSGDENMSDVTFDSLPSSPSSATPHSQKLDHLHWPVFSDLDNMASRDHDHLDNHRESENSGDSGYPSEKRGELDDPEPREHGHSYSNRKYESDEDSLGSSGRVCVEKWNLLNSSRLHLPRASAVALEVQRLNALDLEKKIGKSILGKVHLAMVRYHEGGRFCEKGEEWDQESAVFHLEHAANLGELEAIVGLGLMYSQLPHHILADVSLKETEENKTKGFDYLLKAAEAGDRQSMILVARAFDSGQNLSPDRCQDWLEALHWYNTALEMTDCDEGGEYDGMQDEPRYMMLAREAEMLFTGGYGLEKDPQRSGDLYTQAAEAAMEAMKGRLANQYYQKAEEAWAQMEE
Sequence of Serine/threonine-protein kinase Nek9 (Homo sapiens) (Q8TD19 whole entry, the tested form may be a part): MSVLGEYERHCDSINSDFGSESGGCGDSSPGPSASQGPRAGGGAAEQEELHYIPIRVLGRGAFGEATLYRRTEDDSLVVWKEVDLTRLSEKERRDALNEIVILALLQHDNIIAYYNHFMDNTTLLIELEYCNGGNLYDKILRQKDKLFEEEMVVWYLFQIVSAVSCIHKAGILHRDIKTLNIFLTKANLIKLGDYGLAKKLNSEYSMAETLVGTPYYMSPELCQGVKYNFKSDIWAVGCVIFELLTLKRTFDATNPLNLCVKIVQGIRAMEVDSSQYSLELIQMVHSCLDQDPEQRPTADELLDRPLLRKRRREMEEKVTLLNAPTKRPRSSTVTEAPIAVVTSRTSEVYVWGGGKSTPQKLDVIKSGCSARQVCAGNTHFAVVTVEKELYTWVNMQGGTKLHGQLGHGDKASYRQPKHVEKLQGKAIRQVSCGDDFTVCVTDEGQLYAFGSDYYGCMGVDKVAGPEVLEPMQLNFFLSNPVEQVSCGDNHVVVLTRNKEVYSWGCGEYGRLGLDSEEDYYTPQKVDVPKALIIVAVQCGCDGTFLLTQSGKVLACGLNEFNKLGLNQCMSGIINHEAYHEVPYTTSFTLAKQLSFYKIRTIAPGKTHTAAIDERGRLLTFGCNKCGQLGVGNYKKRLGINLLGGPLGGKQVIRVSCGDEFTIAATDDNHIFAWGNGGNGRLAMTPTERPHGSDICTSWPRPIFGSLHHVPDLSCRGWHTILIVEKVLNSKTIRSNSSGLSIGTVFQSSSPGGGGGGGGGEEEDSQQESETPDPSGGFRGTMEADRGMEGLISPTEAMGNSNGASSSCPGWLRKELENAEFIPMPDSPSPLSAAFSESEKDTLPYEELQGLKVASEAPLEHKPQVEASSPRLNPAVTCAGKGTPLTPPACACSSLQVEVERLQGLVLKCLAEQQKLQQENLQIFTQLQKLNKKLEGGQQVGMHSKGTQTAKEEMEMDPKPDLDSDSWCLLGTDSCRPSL
Sequence of Ribosomal protein S6 kinase beta-1 (Homo sapiens) (P23443 whole entry, looked up, the tested form may be a part): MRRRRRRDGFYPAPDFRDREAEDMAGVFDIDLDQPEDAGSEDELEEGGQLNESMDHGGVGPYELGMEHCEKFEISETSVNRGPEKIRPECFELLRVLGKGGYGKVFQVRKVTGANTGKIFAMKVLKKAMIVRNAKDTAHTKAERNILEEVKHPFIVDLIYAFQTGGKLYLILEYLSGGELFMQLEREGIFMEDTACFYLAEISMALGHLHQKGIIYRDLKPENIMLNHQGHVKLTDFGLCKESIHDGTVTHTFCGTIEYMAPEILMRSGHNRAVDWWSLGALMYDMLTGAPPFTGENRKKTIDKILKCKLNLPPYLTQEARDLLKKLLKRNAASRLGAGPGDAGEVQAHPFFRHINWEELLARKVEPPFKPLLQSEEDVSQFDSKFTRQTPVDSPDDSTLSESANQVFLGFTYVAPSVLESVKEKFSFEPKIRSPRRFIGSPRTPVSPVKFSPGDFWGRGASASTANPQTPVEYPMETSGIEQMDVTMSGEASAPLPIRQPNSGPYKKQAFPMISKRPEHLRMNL

Row | SMILES | inhibition [1] | inhibition [2] | inhibition [3] | inhibition [4] | inhibition [5] | inhibition [6] | inhibition [7] | inhibition [8] | Activity (Homo sapiens) | inhibition [9] | inhibition [10] | inhibition [11] | inhibition [12] | inhibition [13] | inhibition [14] | inhibition [15] | inhibition [16] | inhibition [17] | inhibition [18] | inhibition [19] | further results
1 | Cc1cc(C)c(CNC(=O)c2cc(Br)c3c(c2C)O[C@@](C)([C@H]2CC[C@H](N(C)C)CC2)O3)c(=O)[nH]1 | -3.3% | 4.3% | 1.4% | -2.3% | -2.8% | -2.3% | 1.6% | -2.7% | 59% | -3.2% | -4.4% | -3% | 12.7% | -2.8% | -6.2% | -3.4% | -8.8% | -0.5% | -0.1% | 4.7% | inhibition [20]: 0.1%; inhibition [21]: -4.6%; inhibition [22]: 6.5%
2 | Cc1cc(C)c(CNC(=O)c2cc(Cl)c3c(c2C)O[C@@](C)([C@H]2CC[C@H](N(C)C)CC2)O3)c(=O)[nH]1 [VALEMETOSTAT] | -1.9% | 1.5% | 0.4% | -5.7% | -1.6% | 6% | 1.4% | -3.4% | 62% | -4.3% | -4.5% | -0.3% | 8% | 0.6% | -1.9% | -6.8% | -4.6% | -1.9% | 0.7% | 24% | inhibition [20]: -2%; inhibition [21]: -6.5%; inhibition [22]: 12.2%
